Patent publication US6699686B1, “Modified nuclear glucocorticoid receptor, fusion protein, and DNA fragments coding for said receptor and said fusion protein” (Association pour le Development de la Recherche en …, priority 1996, dated 2004)

T1: hGR(I747/T) (Homo sapiens, UniProt P04150, I747T)
T1 construct: The same shift was observed as with the complete GR (I747/T) mutant; expressed in transfected cells
T1 sequence (P04150 1-777 I747T): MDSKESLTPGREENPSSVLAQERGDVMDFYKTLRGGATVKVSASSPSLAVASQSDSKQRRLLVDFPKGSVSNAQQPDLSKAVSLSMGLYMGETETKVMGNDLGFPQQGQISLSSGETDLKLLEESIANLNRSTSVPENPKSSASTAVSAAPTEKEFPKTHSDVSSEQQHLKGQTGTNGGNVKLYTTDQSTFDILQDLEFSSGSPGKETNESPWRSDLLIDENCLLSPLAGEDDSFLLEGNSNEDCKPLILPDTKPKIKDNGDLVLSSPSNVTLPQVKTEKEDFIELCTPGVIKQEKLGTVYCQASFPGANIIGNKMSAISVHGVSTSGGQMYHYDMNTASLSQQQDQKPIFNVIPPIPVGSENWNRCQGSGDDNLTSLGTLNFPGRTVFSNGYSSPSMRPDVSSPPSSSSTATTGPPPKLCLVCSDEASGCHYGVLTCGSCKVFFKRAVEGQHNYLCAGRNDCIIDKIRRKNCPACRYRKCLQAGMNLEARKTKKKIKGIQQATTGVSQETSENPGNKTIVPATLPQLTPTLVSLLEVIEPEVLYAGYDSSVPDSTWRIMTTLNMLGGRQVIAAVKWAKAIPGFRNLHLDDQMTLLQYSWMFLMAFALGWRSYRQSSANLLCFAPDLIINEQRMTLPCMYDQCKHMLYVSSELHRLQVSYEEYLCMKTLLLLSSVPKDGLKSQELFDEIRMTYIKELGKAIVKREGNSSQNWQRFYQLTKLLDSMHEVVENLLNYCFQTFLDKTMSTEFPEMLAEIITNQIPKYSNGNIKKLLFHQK

T2: wild-type hGR (Homo sapiens, UniProt P04150)
T2 construct: expressed in transfected cells
T2 sequence (P04150 1-777): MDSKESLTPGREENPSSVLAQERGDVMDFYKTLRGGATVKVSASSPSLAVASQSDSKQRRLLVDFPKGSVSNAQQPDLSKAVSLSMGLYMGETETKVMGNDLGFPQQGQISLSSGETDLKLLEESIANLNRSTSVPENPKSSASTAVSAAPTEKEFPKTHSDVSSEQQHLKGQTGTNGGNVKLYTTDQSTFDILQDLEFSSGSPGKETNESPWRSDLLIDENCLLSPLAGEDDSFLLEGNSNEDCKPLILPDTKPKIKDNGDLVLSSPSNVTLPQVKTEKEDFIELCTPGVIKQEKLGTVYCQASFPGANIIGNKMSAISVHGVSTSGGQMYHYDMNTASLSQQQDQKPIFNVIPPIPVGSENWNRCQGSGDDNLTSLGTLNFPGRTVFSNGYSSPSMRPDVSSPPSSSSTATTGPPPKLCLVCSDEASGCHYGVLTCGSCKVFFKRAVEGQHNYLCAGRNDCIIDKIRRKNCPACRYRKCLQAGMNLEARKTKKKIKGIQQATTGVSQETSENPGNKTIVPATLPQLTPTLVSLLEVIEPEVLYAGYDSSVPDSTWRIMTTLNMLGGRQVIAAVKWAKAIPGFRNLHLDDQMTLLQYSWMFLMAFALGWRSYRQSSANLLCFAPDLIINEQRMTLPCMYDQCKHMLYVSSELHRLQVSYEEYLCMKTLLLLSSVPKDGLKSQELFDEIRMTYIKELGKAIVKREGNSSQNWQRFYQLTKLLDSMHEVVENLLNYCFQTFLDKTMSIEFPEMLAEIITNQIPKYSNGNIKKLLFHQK

T3: GR(I747/T) glucocorticoid receptor mutant (Homo sapiens, UniProt P04150 SEQ:1-777)
T3 chain: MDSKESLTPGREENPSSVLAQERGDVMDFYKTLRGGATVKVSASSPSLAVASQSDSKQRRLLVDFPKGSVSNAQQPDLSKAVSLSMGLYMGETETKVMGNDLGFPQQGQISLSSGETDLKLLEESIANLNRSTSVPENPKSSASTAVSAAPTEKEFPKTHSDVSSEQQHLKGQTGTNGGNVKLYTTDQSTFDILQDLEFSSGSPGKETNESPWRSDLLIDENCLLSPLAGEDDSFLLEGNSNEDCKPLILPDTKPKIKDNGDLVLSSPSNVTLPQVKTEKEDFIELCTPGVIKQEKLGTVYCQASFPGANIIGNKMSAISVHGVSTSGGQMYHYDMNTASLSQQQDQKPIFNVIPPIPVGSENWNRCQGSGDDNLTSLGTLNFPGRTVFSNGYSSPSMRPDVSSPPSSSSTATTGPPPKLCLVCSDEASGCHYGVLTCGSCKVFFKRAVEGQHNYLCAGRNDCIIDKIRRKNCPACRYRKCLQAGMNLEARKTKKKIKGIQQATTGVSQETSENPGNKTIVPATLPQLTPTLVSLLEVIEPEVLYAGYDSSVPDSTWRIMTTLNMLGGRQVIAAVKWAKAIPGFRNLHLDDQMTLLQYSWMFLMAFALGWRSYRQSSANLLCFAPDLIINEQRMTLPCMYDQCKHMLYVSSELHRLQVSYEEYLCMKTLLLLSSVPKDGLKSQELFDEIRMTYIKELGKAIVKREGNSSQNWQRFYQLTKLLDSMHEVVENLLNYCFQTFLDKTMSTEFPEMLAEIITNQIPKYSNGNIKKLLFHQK


Assays:
[1] = biological target: T1, hGR(I747/T); test: Transcriptional activation of pTAT-tk-Luc luciferase reporter in transiently transfected CV-1 cells; assay type: cell-based; conditions: for transactivation by the I747/T mutant receptor compared with wild-type receptor / Luciferase activity % hGR (I747/T) / EC50: CV-1 cells, pTAT-tk-Luc; for Luciferase activity % hGR (I747/T): 24 h ligand, mean of three independent assays; for EC50: ligand concentration giving 50% of maximum transcriptional response; for % EC50: EC50 hGR(I747/T) relative to EC50 wild type
Method: (§1) The receptors were transiently expressed in GR-free CV-1 cells, conjointly with a luciferase reporter gene under the control of the tyrosine aminotransferase promoter (pTAT-tk-Luc).
(§2) After transfection, the cells were incubated for 24 hours with increasing concentrations of Dex, and they were then subjected to an assay of the β-galactosidase and luciferase activities, as described in “Materials and Methods”. The luciferase activity was normalized with the β-galactosidase activity, and the value obtained in the absence of ligand was subtracted for each point. The results were expressed as a percentage of the maximum luciferase activity obtained for each receptor. Each point is the mean±standard deviation of the mean of four separate determinations carried out in duplicate. […] The [^3H] steroid attached was measured after treatment with dextran-coated charcoal. The results presented are those for a single assay carried out in duplicate and representative of three separate assays.
(§3) Co-transfections were carried out and dose-response curves were constructed as described in FIG. 2. […] The assays of luciferase and β-galactosidase activity were carried out as described in “Materials and Methods”. The mean values of three independent assays are given in this table. nm=not measurable.
(§4) The CV-1 and Cos-7 cells were cultured in Dulbeco's modified Eagle's medium (DMEM) containing 10% (v/v) of fetal calf serum (FCS) (Gibco, Grand Island, N.Y.), in a humidified atmosphere containing 5% CO2. The HeLa cells were cultured under the same conditions. Transient transfections were carried out in 6-well multiplates according to the calcium phosphate procedure already described (42). A reference recombinant plasmid, pCMV-βgal, expressing bacterial β-galactosidase, was transfected conjointly with the receptor expression vector and the corresponding reporter gene so as to correct possible variations in he transfection efficiency. The precipitate was removed by washing after 24 hours, and the cells were kept in DMEX without FCS but containing hormone. After another 24 hours, the cells were rinsed and lysed for 15 minutes with 0.3 ml of lysis buffer [25 mM Tris.phosphate, pH 7.8, 8 mM […], 1% Triton X100, 10% glycerol (48)]. The corresponding luciferase activity as determined on an aliquot fraction (0.1 ml), by evaluation of the luminescence peak (for an integration time of 15 seconds), after injection of 0.1 ml of 1 mM luciferin in an LKB luminometer. The β-galactosidase was determined by the method modified by Bocquel et al. (49), for controlling the efficiency of each transfection.
(§5) The reporter gene pTAT-tk-Luc was provided by D. Gagne and was constructed as follows: an intermediate plasmid pTAT was first generated by insertion of the 966 bp EcoRI-BamHI segment obtained from pKT531 [offered freely by T. Grande (50)] into the corresponding sites of the vector pUC19 (Pharmacia). The fragment containing the sequence coding for the firefly luciferase and the thymidine kinase (tk) minimal promoter obtained from the Herpes simplex virus was isolated in the form of a BamHI fragment from pvit-tk-Luc (51) and inserted, downstream of the TAT promoter, into the corresponding site of pTAT. The reporter plasmid pGRE-tk-Luc was constructed by ligation of the fragment of HindIII-BglII digestion of pGRE-tk-CAT (52), which contains a synthetic GRE (AGAACAcagTGTTCT) upstream of the tk minimal promoter, into the HindIII-BglII sites of pLuc (53). The reporter gene p(17M)5-βGlob-Luc has been previously described (54). The reporter plasmid p(17M)5-tata-Luc was constructed from the plasmid p(17M)5-tata-CAT (55) by digestion with XhoI-BamHI and isolation of the fragment containing (17M5)-tata. This fragment was then inserted into the vector pGL2 (Promega) digested with the same restriction enzymes.

[2] = biological target: T2, wild-type hGR; test: as above; assay type: cell-based; parameters: Luciferase activity % Wild type: concentration or dose not given beside the values; conditions: for Luciferase activity % Wild type: 24 h ligand, mean of three independent assays; for EC50: ligand concentration giving 50% of maximum transcriptional response
Method: as §1, §2, §3, §4, §5

[3] = test system: Gal4(1-147)-GR(I747/T)(500-777) I747T (Saccharomyces cerevisiae / Homo sapiens); test: cell_activity; conditions: EC50 is for dexamethasone; p(17M)5-βGlob-Luc in HeLa cells; 2e-7 M with tata-Luc
[4] = test system: Gal4(1-147)-GR(500-777) (Saccharomyces cerevisiae / Homo sapiens); test: cell_activity; conditions: EC50 is for dexamethasone; p(17M)5-βGlob-Luc in HeLa cells; 2e-9 M with tata-Luc
[5] = biological target: wild-type glucocorticoid receptor (hGR) T747I (reversion to wild type) (Homo sapiens) (UniProt P04150); test: cell_activity; conditions: EC50 is for dexamethasone; luciferase reporter in CV-1 cells
[6] = biological target: GR(I747/T) glucocorticoid receptor mutant (Homo sapiens) (UniProt P04150); test: cell_activity; conditions: EC50 is for dexamethasone; luciferase reporter in CV-1 cells; cortisol 15% and corticosterone/aldosterone 0% activity
[7] = biological target: T3, GR(I747/T) glucocorticoid receptor …; test: cell_activity; EC50 is for dexamethasone; luciferase reporter in CV-1 cells
Method: The $EC50$ values were determined graphically.
The HeLa cells were cultured under the same conditions.

| Molecule | transactivation by the I747/T mutant receptor compared with wild-type receptor [1] | Luciferase activity % hGR (I747/T) [1] | EC50 [1] | % EC50 [1] | Luciferase activity % Wild type [2] | EC50 [2] | EC50 [3] | EC50 [4] | EC50 [5] | EC50 [6] | EC50 [7] |
| --- | --- | --- | --- | --- | --- | --- | --- | --- | --- | --- | --- |
| CC1(C)O[C@@H]2C[C@H]3[C@@H]4C[C@H](F)C5=CC(=O)C=C[C@]5(C)[C@@]4(F)[C@@H](O)C[C@]3(C)[C@]2(C(=O)CO)O1 [Fluocinolone, fluocinolone acetonide] | a higher activity | 100% | 3 nM | 20% | 75% | 0.15 nM | – | – | – | – | – |
| CC#C[C@]1(O)CC[C@H]2[C@@H]3C=C(C)C4=CC(=O)C=C[C@]4(C)[C@H]3[C@@H](O)C[C@@]21C [RU28362] | the same transactivation as with the wild-type receptor | 88% | 7 nM | 23% | 90% | 0.3 nM | – | – | – | – | – |
| CC1(C)O[C@@H]2C[C@H]3[C@@H]4CCC5=CC(=O)C=C[C@]5(C)[C@@]4(F)[C@@H](O)C[C@]3(C)[C@]2(C(=O)CO)O1 [TA, triamcinolone acetonide] | – | 102% | 20 nM | – | 98% | 0.5 nM | – | – | – | – | – |
| (17M)5 Gal4 response element | – | – | – | – | – | – | 150 nM | 1.7 nM | – | – | – |
| TAT promoter (pTAT-tk-Luc), two GREs | – | – | – | – | – | – | – | – | 0.4 nM | 40 nM | – |
| bimedrazol | a higher activity | 180% | 2 nM | 20% | 100% | 0.1 nM | – | – | – | – | – |
| synthetic palindromic GRE (pGRE-tk-Luc) (dsDNA) DNA 1: AGAACACAGTGTTCT DNA 2: AGAACACTGTGTTCT | – | – | – | – | – | – | – | – | – | – | 20 nM |
